Target: T1, human EDG-5 (Homo sapiens, UniProt O95136)
T1 construct: expressed in transfected cells; host or cells: Chinese hamster ovary (CHO) cells
Assay: Evaluation of antagonistic activity for EDG-5 by monitoring the concentration change of intracellular calcium ion
Assay type: cell-based
Conditions: CHO cells overexpressing human EDG-5 gene, S1P 100 nM stimulation, Fura2, read-out: IC50 value (concentration showing an inhibition rate of 50%)
Protocol: Evaluation of Antagonistic Activity for EDG-5 by Monitoring the Concentration Change of Intracellular Calcium Ion
Chinese hamster ovary (CHO) cells in which human EDG-5 gene was overexpressed were cultured in Ham's F12 medium (GIBCO BRL) containing 10% FBS (fetal bovine serum), penicillin/streptomycin. and blasticidin (5 μg/mL). Thus cultured cells were incubated in a Fura2 (5 μM)-AM solution [Ham's F12 medium containing FBS (10%), HEPES buffer (20 mM, pH7.4), and probenecid (2.5 mM)] at 37° C. for 60 minutes. Then the cells were washed once with a Hanks' solution (2.5 mM) containing probenecid and immersed into the Hanks' solution. A plate was set on a fluorescent drug screening system, and the concentration of intracellular calcium ion was measured for 30 seconds with no stimulation. A solution of a compound (dimethyl sulfoxide (DMSO) solution of 1 nM to 10 μM at the final concentration) to be tested was added. After lapse of 5 minutes, S1P (final concentration: 100 nM) was added, the concentration of intracellular calcium ion before and after the addition of SiP was measured every 3 seconds (excitation wave length: 340 nm and 380 nm; fluorescent wave length: 500 nm). […]

T1 sequence (O95136 whole entry): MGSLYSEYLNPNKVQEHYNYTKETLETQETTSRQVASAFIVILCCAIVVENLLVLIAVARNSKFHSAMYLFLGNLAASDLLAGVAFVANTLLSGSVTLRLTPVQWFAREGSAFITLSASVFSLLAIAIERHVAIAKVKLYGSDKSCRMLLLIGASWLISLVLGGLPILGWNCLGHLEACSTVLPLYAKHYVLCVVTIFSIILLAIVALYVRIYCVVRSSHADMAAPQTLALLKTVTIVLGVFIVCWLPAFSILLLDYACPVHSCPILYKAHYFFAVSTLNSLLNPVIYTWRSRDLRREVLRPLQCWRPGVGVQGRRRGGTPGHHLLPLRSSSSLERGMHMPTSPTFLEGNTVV

For `CCN(c1ccccc1)C1CN(C(=O)Nc2cc(C(F)(F)F)cc(C(F)(F)F)c2)C1` [Example 3(18), N-[3,5-Bis(trifluoromethyl)phenyl]-3-[ethyl(phenyl)amino]azetidine-1-carboxamide], the IC50 was 950 nM.

Source: patent US7511159B2, “Azetidine ring compounds and drugs comprising the same” (Ono Pharmaceutical Co., Ltd., priority 2003, dated 2009)
